What was measured:
brain dopamine turnover = settings: mice and rats; studies of the early ninety's; cited from earlier work
[1] = system: Paclitaxel induced pain sensitization in the formalin test of pain; experiment: Paclitaxel induced neuropathic sensitization (PINS) in the formalin test of pain; assay type: in vivo, mice; settings: for PINS diminished: per os in Tween-80 (5%) suspension, vs Tween-80 (5%) controls
Source text: NS-DA was synthesized and studied pharmacologically in the early ninety's.

locomotion = settings: mice and rats; studies of the early ninety's; cited from earlier work

Row | SMILES | effect on brain dopamine turnover (brain dopamine turnover) | analgesic effect (decrease) ([1]; 0-5 mn acute pain phase, females) [%] | analgesic effect ([1]; 0-5 mn acute pain phase, male mice) | suppression of PINS ([1]; 40 mg/kg ip in Cremophor.EL, 35-40 mn central sensitization phase, 1 hour after administration, vs Cremophor.EL control) [%] | analgesic effect (decrease) ([1]; 35-40 mn sensitization phase, males and females) | analgesic effect (decrease) ([1]; 55-60 mn sensitization phase, female mice) [%] | analgesic effect (decrease) ([1]; 55-60 mn sensitization phase, males) [%] | effect on PINS ([1]; NS-DA 10 mg/kg ip alone, 35-40 mn central sensitization phase) | analgesic activity against PINS ([1]; formalin test, mice, general statement) | PINS diminished ([1]; 1 hour after administration) [%] | PINS diminished ([1]; 2 hours after administration) [%] | PINS diminished ([1]; 4 hours after administration) [%] | effect on locomotion (locomotion) | decrease of PINS ([1]; morphine 3 mg/kg sc alone, 35-40 mn central sensitization phase) [%]
1 | CCCCCCCCCCCCCCCCCC(=O)NCCc1ccc(O)c(O)c1 [NS-DA] | decrease of the brain dopamine turnover | 65 | not significant | 94.8 | about 95% | 95 | 58 | inactive | high analgesic activity | 39 | 62 | 76 | hypomotility | –
2 | CN1CC[C@]23c4c5ccc(O)c4O[C@H]2[C@@H](O)C=C[C@H]3[C@H]1C5 [morphine, reference compound] | – | – | – | – | – | – | – | – | – | – | – | – | – | 37
